Data: patent publication US20230107216A1, “PANTETHEINE DERIVATIVES AND USES THEREOF” (Comet Therapeutics, Inc., priority 2018, published 2023)
Read-outs that look alike come from different tables or passages of the source.

Columns and labels:
[1] = tested on: Methylmalonic Acidemia (MMA) primary fibroblasts Tsi 5224; assay: Mitochondrial respiration, XFe96 Extracellular Flux Analyzer (OCR/ECAR), MMA fibroblasts Tsi 5224; format: cell-based; settings: Homo sapiens, Fibroblast;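 for Increase in Maximal Respiratory Capacity AUC: relative to vehicle DMSO control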
Description: The effect of the compounds of the present disclosure on mitochondrial respiration was measured with a XFe96 Extracellular Flux Analyzer (Seahorse Bioscience, Agilent Technologies) and Oxygen consumption Rate (OCR) and Extracellular acidification rate (ECAR) determined.
Cell culture and treatments. Primary adherent fibroblasts were cultured in minimum essential medium (MEM) (Gibco, 25030081) supplemented with 2 mM L-Glutamine (Gibco, 25030081), 15% fetal bovine serum (FBS) (Gibco, 26400044) and 1% penicillin/streptomycin (Gibco, 5140122) at 37° C. and 5% CO2. Cells were collected for either passaging or experiment at ˜70-80% confluence. Cells were obtained by trypsinization and seeded at 20000 cells/well in cell culture microplates (Seahorse Bioscience, 101085-004) and allowed to adhere for 16 hours in culture media.
By profiling different primary cells and/or optimizing their culture media or environmental components one can select cell lines and/or conditions that are appropriate for the biological or disease model. In the present example, 24 hours prior to OCR and ECAR profiling, media was changed to Dulbecco's Modified Eagle Medium (DMEM, Agilent Seahorse 103575-100) with the appropriate supplements for the different primary cells (10 mM glucose, 2 mM L-glutamine, 1 mM pyruvate, 10% FBS; 1 mM glucose, 2 mM L-glutamine, 1 mM pyruvate, 10% FBS; 10 mM glucose, 10% FBS; 5 mM glucose 10% FBS; 1 mM glucose 10% FBS). Cells used in this example were: Propionic Acidemia (PA) (GM00371, GM03590 Coriell Institute for Medical Research, Tsi 6337, Tsi 4626, Tsi 3618 Trans-Hit Bio), Methylmalonic Acidemia (MMA) (GM01673, Coriell Institute for Medical Research, Tsi 5224 Trans-Hit Bio), Branched chain ketoacid dehydrogenase kinase (BCKDK) (GM00612, GM00649 Coriell Institute for Medical Research), Subnormal activation of pyruvate dehydrogenase complex (PDH) (GM01503 Coriell Institute for Medical Research), Very long-chain acyl-CoA dehydrogenase (VLCAD) (GM17475), Leigh Syndrome (LS) (GM03672, GM13411 Coriell Institute for Medical Research), Pyruvate Carboxylase Deficiency (PC) (GM00444 Coriell Institute for Medical Research), Glutaric Acidemia-I (GA) (GM10653), Friedreich's Ataxia (FXN) (GM04078 Coriell Institute for Medical Research, Huntington's disease (HD) (GM21756 Coriell Institute for Medical Research), Ornithine Transcarbamylase Deficiency (OTC) (GM12756 Coriell Institute for Medical Research), Kearns-Sayre Syndrome (KSS) (GM06225 Coriell Institute for Medical Research).
One hour before the assay, the cells were washed with freshly prepared unbuffered serum free-Seahorse XF Assay medium (Seahorse Bioscience, North America, USA, 103575-100) with the same supplements as for the previous 24 hour incubation.
After baseline measurements of OCR, cells were challenged with compounds of the present disclosure at different concentrations (10 to 50 μM) or vehicle (DMSO, 0.1%) and a post-compound baseline was recorded. OCR was measured after sequentially adding to each well 1 μg/ml oligomycin (inhibitor of ATP synthase Sigma-Aldrich, 753531), then maximal OCR was determined with carbonyl cyanide 4-(trifluoromethoxy) phenylhydrazone (FCCP, Sigma-Aldrich, C2920), (uncoupler of oxidative phosphorylation) and 0.5 μM of rotenone (Sigma-Aldrich, R8875) plus antimycin A (Sigma-Aldrich, A8674) (inhibitors of mitochondrial complex I and III) for determination of rotenone-antimycin insensitive respiration together with Hoechst for nuclear staining in situ when normalized to cell counts. After the analysis and nuclear staining, the XFp microplate was transferred to the Cytation 5, and the nuclear images were captured, the individual nuclei were identified and counted by BioTek Gen5 software. Data were expressed as pmol of O2 per minute and normalized by nuclear staining and baselined to pre-compound addition.
Assay conditions were as stated below.
Assay specifics on assay conditions are indicated below when readouts were normalized to cell counts. […]

[2] = tested on: monocyte-derived M1 macrophages; assay: M1 differentiation assay (macrophage TNFα, IL6, IL10 ELISA, FACS); format: cell-based, human
Description: Monocytes were isolated by positive isolation with CD14+ microbeads (Miltenyi, 130-050-201). Monocytes were 99% viable and were 96% purity as analyzed by FACS and CD14+ (BD, 563561). 100,000 monocytes along with compounds at the dose of 10 and 50 μM were allowed to differentiate to macrophages with 10 ng/ml GMCSF (R&D, 15-GM-050/CF) in RPMI complete media (Invitrogen, 22400089) with 15% FBS (Hyclone SV30087.03) and 1% Penicillin-Streptomycin (Gibco, 15140-122). On day 2 and 4 half the media was refreshed with fresh GM-CSF and compounds at 10 and 50 μM dose. On day 6 the macrophages were matured with GMCSF, IFNγ (R&D 285-IF-100/CF) and LPS (Sigma, L6143) in the presence of 10 μM and 50 μM of compounds. After 24h, supernatant was collected for the measurement of TNFα (DKW, 1117202) IL6 (DKW, 1110602), IL10 (DKW, 1110003) by ELISA. Macrophages were detached gently on ice with EDTA (Invitrogen, 15575-038) and analyzed by FACS (BD LSR Fortessa, 853492). Cells were stained for live/dead dye, surface and intracellular markers with fixation/permeabilization solution (BD, 554714) and ALIVE/DEAD™ Fixable Near-IR Dead Cell Stain Kit (BD, L34976), mouse anti human CD86 APC (BD, 555660), mouse anti-human CD163 PE (BD, 556018), mouse anti-human CD68 FITC (BD, 562117) or isotype controls anti-mouse IgG1 κ PE (BD, 559320) and anti-mouse IgG1 κ APC (BD, Anti mouse IgG1 κ APC (BD, 55571). Mature M1 macrophages were defined as CD86+CD68+CD163− and increase in TNFα, IL6, and decrease in IL-10.

HepG2 cells = assay: Glucose uptake (Glucose Uptake-Glo); format: cell-based; settings: Homo sapiens, 10 uM, read-out: % increase in Glucose Uptake
[3] = tested on: primary fibroblasts (healthy controls and PA, MMA, BCKDK, PDH, VLCAD, LS, PC, GA, VLCFA, KSS, FXN, HD); assay: Measurement of ROS (H2DCFDA) in primary fibroblasts; format: cell-based, human; settings: Homo sapiens, procedure Example 812, Assay Condition C
Description: Primary adherent fibroblasts were cultured in minimum essential medium (MEM) (Gibco, 25030081) supplemented with 2 mM L-Glutamine (Gibco, 25030081), 15% fetal bovine serum (FBS) (Gibco, 26400044) and 1% penicillin/streptomycin (Gibco, 5140122) at 37° C. and 5% CO2. Cells were collected for either passaging or experiment at ˜70-80% confluence. Cells were obtained by trypsinization and seeded in cell culture microplates either white plate (Thermo Fisher Scientific, 152028) for luminescent measurement or black plate (Thermo Fisher Scientific, 165305) for fluorescent based read out for different assays listed below. Cells were obtained by trypsinization and […] were seeded and allowed to adhere for 16-18 hours to have confluency around 70-80% in the cell well with culture media. After 24 hours prior to measurements (37° C., 5% CO2) media was changed to Dulbecco's Modified Eagle Medium (DMEM, Agilent Seahorse cat #103575-100) with the appropriate supplements as stated below.
Primary fibroblasts assayed were Healthy controls (GM00041, GM05659, GM23974 Coriell Institute for Medical Research), Propionic Acidemia (PA) (GM00371, GM03590 Coriell Institute for Medical Research, Tsi 6337 Trans-Hit Bio), Methylmalonic Acidemia (MMA) (GM01673, Coriell Institute for Medical Research, Tsi 5224, Tsi 4290 Trans-Hit Bio), Branched chain ketoacid dehydrogenase kinase (BCKDK) (GM00612, GM00649 Coriell Institute for Medical Research), Subnormal activation of pyruvate dehydrogenase complex (PDH) (GM01503 Coriell Institute for Medical Research), Very long-chain acyl-CoA dehydrogenase (VLCAD) (GM17475), Leigh Syndrome (LS) (GM03672, GM13411 Coriell Institute for Medical Research), Pyruvate Carboxylase Deficiency (PC) (GM00444 Coriell Institute for Medical Research), Glutaric Acidemia-I (GA), Impaired VLCFA oxidation (VLCFA) (GM13262), Kearns-Sayre Syndrome (KSS) (GM06225 Coriell Institute for Medical Research), Friedreich's Ataxia (FXN), Huntington's disease (HD) (GM21756 Coriell Institute for Medical Research). Next, cells were treated with compounds (10 μM) and ROS H2DCFDA (22 μM) dye for 2 hours in PA, MMA lines and for 24h for the other fibroblast lines. Kinetic read was started immediately with a i3x plate reader (492/527 nm) for 60 minutes.
A total dead cell count was performed as described in Example 817 and only alive cells were used for analysis.

[4] = tested on: Propionic Acidemia (PA) primary fibroblasts GM00371; assay: Mitochondrial respiration, XFe96 Extracellular Flux Analyzer (OCR/ECAR), PA fibroblasts GM00371; format: cell-based; settings: Homo sapiens, Fibroblast, assay condition C (10 mM glucose, 10% FBS), 50 μM, read-out: Increase in Maximal Respiratory Capacity AUC
[5] = MMA Tsi 5224, assay condition D (1 mM glucose, 10% FBS), read-out: Increase in Maximal Respiratory Capacity AUC
[6] = MMA Tsi 5224, assay condition A (10 mM glucose, 2 mM L-glutamine, 1 mM pyruvate, 10% FBS), read-out: Increase in Maximal Respiratory Capacity AUC
[7] = Fibroblast, PC GM00444, read-out: Decreased ROS by at least 10%
[8] = Fibroblast, PC GM00444, read-out: Decreased ROS by at least 30%
[9] = FXN GM04078, read-out: Decreased ROS by at least 10%
[10] = FXN GM04078, read-out: Decreased ROS by at least 30%

## COC(=O)CC(SCCNC(=O)CCNC(=O)[C@H](O)C(C)(C)COP(=O)(O)O)C(=O)OC (stereo partly drawn) [Compound 86, dimethyl 2-((2-(3-((R)-2-hydroxy-3,3-dimethyl-4-(phosphonooxy)butanamido)propanamido)ethyl)thio)succinate]
[1]; [5]
  activation at 10 µM: ≥ 10%
[2]; 10 uM
  % Increase in Live Macrophage Cells: ≥20%

## COC(=O)C(=O)SCCNC(=O)CCNC(=O)[C@H](O)C(C)(C)CO [Compound 30, Methyl (R)-2-((2-(3-(2,4-dihydroxy-3,3-dimethylbutanamido)propanamido)ethyl)thio)-2-oxoacetate]
[1]; [6]
  activation at 10 µM: ≥ 10%

## CC(=O)SCCNC(=O)CCNC(=O)[C@H](O)C(C)(C)CO [Compound 1241, (R)—S-(2-(3-(2,4-dihydroxy-3,3-dimethylbutanamido)propanamido)ethyl) ethanethioate]
HepG2 cells
  activation at 10 µM: ≥ 30%

## CC(=O)C(C)C(=O)SCCNC(=O)CCNC(=O)[C@H](O)C(C)(C)CO (stereo partly drawn) [Compound 396, (2R)-2,4-dihydroxy-3,3-dimethyl-N-[2-([2-[(2-methyl-3-oxobutanoyl)sulfanyl]ethyl]carbamoyl)ethyl]butanamide]
[3]; [7]
  inhibition at 10 µM: ≥ 10%
[3]; [8]
  inhibition at 10 µM: ≥ 30%
[4]
  activation at 50 µM: ≥ 10%

## COC(=O)[C@@H](N)CC(=O)SCCNC(=O)CCNC(=O)[C@H](O)C(C)(C)CO [Compound 415]
[1]; MMA Tsi 5224, assay condition D (1 mM glucose, 10% FBS), read-out: Increase in Spare Capacity AUC
  activation at 10 µM: ≥ 10%
[2]; 50 uM
  % decrease in Live Macrophage Cells: ≥20%
[2]; Homo sapiens, Macrophage, 10 uM, read-out: % Increase in IL-10 Secretion
  activation at 10 µM: ≥ 30%
[2]; Homo sapiens, Macrophage, 10 uM, read-out: % decrease in Macrophage IL-6 Secretion
  inhibition at 10 µM: ≥ 30%
[2]; Homo sapiens, Macrophage, 10 uM, read-out: % decrease in Macrophage TNFα Secretion
  inhibition at 10 µM: ≥ 30%

## COC(=O)CCC(=O)CC(=O)SCCNC(=O)CCNC(=O)[C@H](O)C(C)(C)CO [Compound 5, methyl 6-[(2-[3-[(2R)-2,4-dihydroxy-3,3-dimethylbutanamido]propanamido]ethyl)sulfanyl]-4,6-dioxo-hexanoate]
[4]
  activation at 50 µM: ≥ 10%

## COC(=O)[C@@H](N)CCC(=O)SCCNC(=O)CCNC(=O)[C@H](O)C(C)(C)CO [Compound 412, methyl (2S)-2-amino-5-[(2-[3-[(2R)-2,4-dihydroxy-3,3-dimethylbutanamido]propanamido]ethyl)sulfanyl]-5-oxopentanoate]
[3]; [7]
  inhibition at 10 µM: ≥ 10%
[3]; [8]
  inhibition at 10 µM: ≥ 30%
[3]; [9]
  inhibition at 10 µM: ≥ 10%
[3]; [10]
  inhibition at 10 µM: ≥ 30%

## CC(C)(COC(=O)CCC(=O)O)[C@@H](O)C(=O)NCCC(=O)NCCSC(=O)CCC(=O)O [Compound 1232]
[3]; Fibroblast, VLCFA GM13262, read-out: Decreased ROS by at least 10%
  inhibition at 10 µM: ≥ 10%
[3]; Fibroblast, VLCFA GM13262, read-out: Decreased ROS by at least 30%
  inhibition at 10 µM: ≥ 30%
[3]; [9]
  inhibition at 10 µM: ≥ 10%
[3]; [10]
  inhibition at 10 µM: ≥ 30%
[1]; [6]
  activation at 10 µM: ≥ 10%
[1]; [5]
  activation at 10 µM: ≥ 10%

## CC(C)(C)OC(=O)N[C@@H](CC(=O)SCCNC(=O)CCNC(=O)[C@H](O)C(C)(C)CO)C(=O)OC(C)(C)C [Compound 1318]
[1]; MMA Tsi 5224, assay condition B (1 mM glucose, 2 mM L-glutamine, 1 mM pyruvate, 10% FBS), read-out: Increase in Spare Capacity AUC
  activation at 10 µM: ≥ 10%

## CC(O)CC(=O)CC(=O)CC(=O)SCCNC(=O)CCNC(=O)[C@H](O)C(C)(C)CO (stereo partly shown) [Compound 379]
[3]; [9]
  inhibition at 10 µM: ≥ 10%
